The format of data set [1] is in vivo, human. The settings on record: for AUCτ geometric least-squares mean ratio (90%CI) / Cmax geometric least-squares mean ratio (90%CI): lopinavir/ritonavir plus isavuconazole to isavuconazole alone; for AUC: AUCτ, day 13 (24 hours), mean (SD).
In the next data set the test system is UGT1A9. To be noted: read-out: IC50 for propofol glucuronidation [UGT1A9]; human liver microsomes; cited from earlier work. In general terms: Microsomes from liver hold many membrane-bound enzymes, among them those of drug oxidation.
A further data set has as its system CYP3A5. To be noted: CYP3A5-expressing human liver microsomes; cited from earlier work.
The next data set has as its system CYP3A7. To be noted: CYP3A7-expressing human liver microsomes; cited from earlier work.
For data set [2], the system named is CYP2B6. To be noted: CYP2B6-expressing human liver microsomes; cited from earlier work.
The subject of a further data set is UGT2B7. The settings on record: read-out: IC50 for morphine 3-glucuronidation [UGT2B7]; human liver microsomes; cited from earlier work.
Another data set concerns UGT1A1. The settings on record: read-out: IC50 for 17β-estradiol 3-glucuronidation [UGT1A1]; human liver microsomes; cited from earlier work.
Data set [3] has as its system CYP2C8. To be noted: CYP2C8-expressing human liver microsomes; cited from earlier work.
Data set [4] concerns CYP2B6. The settings on record: cultured human hepatocytes; cited from earlier work.
For the next data set, the system named is MATE1. The settings on record: read-out: IC50 MATE1 inhibition; [14C]metformin substrate; ref data on file; cited from earlier work.
For data set [5], the system named is CYP2C8. The settings on record: human liver microsomes; paclitaxel hydroxylation; P < .05; ref data on file; cited from earlier work.
Data set [6] can be described thus: Safety: treatment-emergent adverse events in healthy subjects. The data set is classed as in vivo, human.
For the next data set, the system named is OCT2. The settings on record: [14C]metformin substrate, ref data on file, cited from earlier work.
In data set [7] the test system is CYP2B6. The settings on record: human liver microsomes; S-mephenytoin demethylation; P < .01; ref data on file; cited from earlier work.
The next data set concerns P-gp. The settings on record: read-out: IC50 P-gp inhibition; [3H]digoxin substrate; ref data on file; cited from earlier work.
Data set [8] concerns CYP3A4. The settings on record: CYP3A4-expressing human liver microsomes; cited from earlier work.
Data set [9] concerns CYP3A4. To be noted: cultured human hepatocytes; cited from earlier work.
The format of data set [10] is in vivo, human. To be noted: for decrease in mean AUCτ in presence vs absence of isavuconazole / decrease in mean Cmax in presence vs absence of isavuconazole: Part 2, isavuconazole 200 mg; for AUC / Cmax: both, human, plasma, oral; for AUC: AUCτ, day 13 (12 hours), mean (SD); for Cmax: day 13, mean (SD).
The mark [11] stands for this setting: Part 2, lopinavir/ritonavir 400/100 mg + isavuconazole 200 mg, n = 16.
The mark [12] stands for this setting: Part 2, lopinavir/ritonavir 400/100 mg alone, n = 18.
The mark [13] stands for this setting: Part 2, lopinavir/ritonavir plus isavuconazole to lopinavir/ritonavir alone.

Molecules are shown by their SMILES. Where two headings read alike, the source gives them in different places. Bounds are passed on as bounds.

As to `C[C@@H](c1nc(-c2ccc(C#N)cc2)cs1)[C@](O)(Cn1cncn1)c1cc(F)ccc1F` [Isavuconazole, isavuconazole], the “AUCτ geometric least-squares mean ratio (90%CI)” value is reported as 213 (174, 262) % in data set [1] (Part 1 (isavuconazole 100 mg)) and 196 (164, 235) % in data set [1] (Part 2 (isavuconazole 200 mg)). The “Cmax geometric least-squares mean ratio (90%CI)” value in [1] (Part 1 (isavuconazole 100 mg)) is 196 (155, 248) %; in [1] (Part 2 (isavuconazole 200 mg)), 174 (146, 208) %. For the same molecule, the “increase in mean AUCτ in presence vs absence of lopinavir/ritonavir” value was 113% in data set [1] (Part 1, isavuconazole 100 mg) and 96% in data set [1] (Part 2, isavuconazole 200 mg). For the same molecule, the “increase in mean Cmax in presence vs absence of lopinavir/ritonavir” value in data set [1] (Part 1, isavuconazole 100 mg) is reported as 96%; in data set [1] (Part 2, isavuconazole 200 mg) it was 74%. Further, the Tmax is 3.0 (1.0‐4.0) hours in data set [1] (Part 2, isavuconazole 200 mg + lopinavir/ritonavir, day 13, median (range)); 3 h in data set [1] (both, human, plasma, oral, 100 mg); 3 h in data set [1] (both, human, plasma, oral, 200 mg). Besides, the AUC in data set [1] (both, human, plasma, oral, Part 1, isavuconazole 100 mg + lopinavir/ritonavir 400/100 mg BID, n = 6) was found to be 116000 ng·h/mL; in data set [1] (both, human, plasma, oral, Part 2, isavuconazole 200 mg + lopinavir/ritonavir 400/100 mg BID, n = 16) it was 222000 ng·h/mL. Also, the half-maximal inhibitory concentration (IC50) in the data set on UGT1A9 was 19 µM; with UGT2B7, 44 µM; in the data set with UGT1A1 it was 9 µM; with MATE1, 6.31 µM; in the data set with OCT2 (read-out: IC50 OCT2 inhibition), 1.97 µM; with P-gp it was 25.7 µM. The “% remaining” value with CYP3A5 is 68.4 % remaining; in the data set with CYP3A7 it was more than 98 % remaining; in the data set with CYP2B6 [2], more than 98 % remaining; in the data set on CYP2C8 [3], more than 98 % remaining; with CYP3A4 [8], 33.8 % remaining. Moreover, in the data set on CYP2B6 [4], the “increase of CYP2B6 activity” value is given as 13.4 fold. Further, in the data set on CYP2B6 [4], the “increase of CYP2B6 mRNA” value is recorded as 11.4 fold. Also, in the data set on CYP2C8 [5], the “correlation (r) of isavuconazole metabolism with CYP2C8 activity” value is given as 0.57. The “subjects who experienced TEAEs” value in data set [6] (Part 1 (isavuconazole 100 mg), all mild) is given as 2 (33.3%) n (%). Moreover, the “TEAEs overall, subjects” value in data set [6] (Part 2) is 11 (61.1%) n (%). Besides, in data set [6] (Part 2, text), the “subjects with TEAEs in system organ class gastrointestinal disorders” value is 16.7%. Further, in the data set with OCT2 (read-out: Ki OCT2 inhibition), the Ki is 0.69 µM. The “correlation (r) of isavuconazole metabolism with CYP2B6 activity” value in the data set on CYP2B6 [7] is reported as 0.65. The “increase of CYP3A4 activity” value in the data set with CYP3A4 [9] is recorded as 3.4 fold. The “increase of CYP3A4 mRNA” value with CYP3A4 [9] was 6.4 fold.
With `CC(C)c1nc(CN(C)C(=O)N[C@H](C(=O)N[C@@H](Cc2ccccc2)C[C@H](O)[C@H](Cc2ccccc2)NC(=O)OCc2cncs2)C(C)C)cs1` [Ritonavir, ritonavir], the “decrease in mean AUCτ in presence vs absence of isavuconazole” value in [10] was found to be 31%. For the same molecule, the “decrease in mean Cmax in presence vs absence of isavuconazole” value in data set [10] turned out to be 33%. The AUC in [10] (setting [11]) was 4000 ng·h/mL; in data set [10] (setting [12]), 5500 ng·h/mL. Moreover, the maximum concentration (Cmax) in [10] (Part 2, lopinavir/ritonavir + isavuconazole) was 800 ng/mL; in [10] (Part 2, lopinavir/ritonavir alone) it was 1200 ng/mL.
Regarding `Cc1cccc(C)c1OCC(=O)N[C@@H](Cc1ccccc1)[C@@H](O)C[C@H](Cc1ccccc1)NC(=O)[C@H](C(C)C)N1CCCNC1=O` [Lopinavir, lopinavir], in data set [10], the “decrease in mean AUCτ in presence vs absence of isavuconazole” value was 27% and the “decrease in mean Cmax in presence vs absence of isavuconazole” value is recorded as 23%. Moreover, in data set [10] (setting [13]), the “AUCτ geometric least-squares mean ratio (90%CI)” value is recorded as 73 (56, 96) % and the “Cmax geometric least-squares mean ratio (90%CI)” value was 77 (62, 95) %. Besides, the AUC in data set [10] (setting [11]) was 73300 ng·h/mL. The same molecule had an AUC in data set [10] (setting [12]) of 91000 ng·h/mL.

Broadly, the AUC is the area under the concentration-time curve, a measure of exposure. Broadly, the IC50 is the concentration needed to halve the response being measured. By Ki is commonly meant the equilibrium dissociation constant of an inhibitor or competing ligand from its target. One may read the Cmax as the peak of the concentration-time curve.

These data come from paper PMC5297880 (Clinical Pharmacology in Drug Development, 2016).
